biological target: T1, chimeric human H3 receptor (Homo sapiens, UniProt Q9Y5N1); test: Chimeric human H3 receptor screening GTP binding assay (inhibition of histamine-stimulated GTP-gamma35S binding, Example 8); format: biochemical; conditions: 1 h; assay described in Example 8; symbol "!" in column headed Ki; read-out: Ki ("!": percent inhibition of agonist-induced GTP-gammaS binding to H3)
T1 construct: rat Galpha-i2 (Gnai2, rat); made in house; host or cells: Sf9 insect cells (baculovirus); P2 membranes
In short: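 Sf9 membranes co-expressing chimeric human H3 receptor and heterotrimeric G-protein (35 μg protein) incubated 60 min at room temperature with 4 μM compound, 1 μM histamine and 125 pM GTP-gamma35S in pH 7.4 buffer with 10 μM GDP. Filter-bound radioactivity, nonspecific (10 μM GTP-gammaS) subtracted, reported as % inhibition of histamine signal.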

T1 sequence (Q9Y5N1 with tags, fused parts or gaps): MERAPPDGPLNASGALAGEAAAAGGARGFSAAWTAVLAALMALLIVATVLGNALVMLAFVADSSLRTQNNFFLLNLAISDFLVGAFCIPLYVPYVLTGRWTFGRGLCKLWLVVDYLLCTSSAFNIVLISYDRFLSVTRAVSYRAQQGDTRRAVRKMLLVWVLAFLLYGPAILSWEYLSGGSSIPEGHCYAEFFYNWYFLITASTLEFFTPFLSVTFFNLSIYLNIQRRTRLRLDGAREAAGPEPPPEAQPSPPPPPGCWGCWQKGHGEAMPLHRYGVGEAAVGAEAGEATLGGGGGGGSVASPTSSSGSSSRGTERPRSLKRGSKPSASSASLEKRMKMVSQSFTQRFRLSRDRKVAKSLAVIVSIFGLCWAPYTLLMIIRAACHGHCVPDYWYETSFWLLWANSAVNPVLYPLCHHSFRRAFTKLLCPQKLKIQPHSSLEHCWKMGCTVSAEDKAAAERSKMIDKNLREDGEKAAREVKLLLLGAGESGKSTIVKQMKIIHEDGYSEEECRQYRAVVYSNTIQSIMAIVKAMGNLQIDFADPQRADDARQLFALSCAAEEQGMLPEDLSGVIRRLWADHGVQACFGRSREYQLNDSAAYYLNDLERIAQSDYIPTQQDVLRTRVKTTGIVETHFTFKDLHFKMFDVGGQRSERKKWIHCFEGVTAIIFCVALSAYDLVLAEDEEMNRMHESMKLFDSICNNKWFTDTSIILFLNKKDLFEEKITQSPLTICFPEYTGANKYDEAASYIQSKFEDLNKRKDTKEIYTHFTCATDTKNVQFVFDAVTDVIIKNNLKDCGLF

SMILES | inhibition at 4 µM
O=C(c1ccc(F)c(F)c1)N1CCc2cnc(N3CCN(C4CCC4)CC3)nc2CC1 [Compound 390, 2-(4-cyclobutylpiperazin-1-yl)-7-(3,4-difluorobenzoyl)-6,7,8,9-tetrahydro-5H-pyrimido[4,5-d]azepine] | ≥ 90%
O=C(c1ccc(Cl)c(Cl)c1)N1CCc2cnc(N3CCN(C4CCC4)CC3)nc2CC1 [Compound 396, 2-(4-cyclobutylpiperazin-1-yl)-7-(3,4-dichlorobenzoyl)-6,7,8,9-tetrahydro-5H-pyrimido[4,5-d]azepine] | ≥ 90%
O=C(c1cccc(C(F)(F)F)c1)N1CCc2cnc(N3CCN(C4CCC4)CC3)nc2CC1 [Compound 397, 2-(4-cyclobutylpiperazin-1-yl)-7-[3-(trifluoromethyl)benzoyl]-6,7,8,9-tetrahydro-5H-pyrimido[4,5-d]azepine] | ≥ 90%
O=C(c1cc(Cl)cc(Cl)c1)N1CCc2cnc(N3CCN(C4CCC4)CC3)nc2CC1 [Compound 398, 2-(4-cyclobutylpiperazin-1-yl)-7-(3,5-dichlorobenzoyl)-6,7,8,9-tetrahydro-5H-pyrimido[4,5-d]azepine] | ≥ 90%
O=C(c1cccc(C(F)(F)F)c1F)N1CCc2cnc(N3CCN(C4CCC4)CC3)nc2CC1 [Compound 399, 2-(4-cyclobutylpiperazin-1-yl)-7-[2-fluoro-3-(trifluoromethyl)benzoyl]-6,7,8,9-tetrahydro-5H-pyrimido[4,5-d]azepine] | ≥ 90%
Cc1ccc(C(=O)N2CCc3cnc(N4CCN(C5CCC5)CC4)nc3CC2)cc1Br [Compound 400, 7-(3-bromo-4-methylbenzoyl)-2-(4-cyclobutylpiperazin-1-yl)-6,7,8,9-tetrahydro-5H-pyrimido[4,5-d]azepine] | ≥ 90%
O=C(c1ccc(F)c(Br)c1)N1CCc2cnc(N3CCN(C4CCC4)CC3)nc2CC1 [Compound 401, 7-(3-bromo-4-fluorobenzoyl)-2-(4-cyclobutylpiperazin-1-yl)-6,7,8,9-tetrahydro-5H-pyrimido[4,5-d]azepine] | ≥ 90%
O=C(c1cc(C(F)(F)F)cc(C(F)(F)F)c1)N1CCc2cnc(N3CCN(C4CCC4)CC3)nc2CC1 [Compound 402, 7-[3,5-bis(trifluoromethyl)benzoyl]-2-(4-cyclobutylpiperazin-1-yl)-6,7,8,9-tetrahydro-5H-pyrimido[4,5-d]azepine] | ≥ 90%
O=C(c1cccc2ccccc12)N1CCc2cnc(N3CCN(C4CCC4)CC3)nc2CC1 [Compound 404, 2-(4-cyclobutylpiperazin-1-yl)-7-(1-naphthoyl)-6,7,8,9-tetrahydro-5H-pyrimido[4,5-d]azepine] | ≥ 90%
Cc1cc(C)c(C(=O)N2CCc3cnc(N4CCN(C5CCC5)CC4)nc3CC2)c(C)c1 [Compound 405, 2-(4-cyclobutylpiperazin-1-yl)-7-(mesitylcarbonyl)-6,7,8,9-tetrahydro-5H-pyrimido[4,5-d]azepine] | ≥ 90%
Cc1cccc(C)c1C(=O)N1CCc2cnc(N3CCN(C4CCC4)CC3)nc2CC1 [Compound 406, 2-(4-cyclobutylpiperazin-1-yl)-7-(2,6-dimethylbenzoyl)-6,7,8,9-tetrahydro-5H-pyrimido[4,5-d]azepine] | ≥ 90%
CSc1ccccc1C(=O)N1CCc2cnc(N3CCN(C4CCC4)CC3)nc2CC1 [Compound 408, 2-(4-cyclobutylpiperazin-1-yl)-7-[2-(methylthio)benzoyl]-6,7,8,9-tetrahydro-5H-pyrimido[4,5-d]azepine] | ≥ 90%
O=C(c1ccccc1-c1ccccc1)N1CCc2cnc(N3CCN(C4CCC4)CC3)nc2CC1 [Compound 409, 7-(biphenyl-2-ylcarbonyl)-2-(4-cyclobutylpiperazin-1-yl)-6,7,8,9-tetrahydro-5H-pyrimido[4,5-d]azepine] | ≥ 90%
O=C(c1ccccc1Cc1ccccc1)N1CCc2cnc(N3CCN(C4CCC4)CC3)nc2CC1 [Compound 410, 7-(2-benzylbenzoyl)-2-(4-cyclobutylpiperazin-1-yl)-6,7,8,9-tetrahydro-5H-pyrimido[4,5-d]azepine] | ≥ 90%
O=C(c1ccccc1CCc1ccccc1)N1CCc2cnc(N3CCN(C4CCC4)CC3)nc2CC1 [Compound 411, 2-(4-cyclobutylpiperazin-1-yl)-7-[2-(2-phenylethyl)benzoyl]-6,7,8,9-tetrahydro-5H-pyrimido[4,5-d]azepine] | ≥ 90%
O=C(c1ccccc1OC(F)(F)F)N1CCc2cnc(N3CCN(C4CCC4)CC3)nc2CC1 [Compound 412, 2-(4-cyclobutylpiperazin-1-yl)-7-[2-(trifluoromethoxy)benzoyl]-6,7,8,9-tetrahydro-5H-pyrimido[4,5-d]azepine] | ≥ 90%
COc1ccc(Br)c(OC)c1C(=O)N1CCc2cnc(N3CCN(C4CCC4)CC3)nc2CC1 [Compound 414, 7-(3-bromo-2,6-dimethoxybenzoyl)-2-(4-cyclobutylpiperazin-1-yl)-6,7,8,9-tetrahydro-5H-pyrimido[4,5-d]azepine] | ≥ 90%
CCCOc1ccccc1C(=O)N1CCc2cnc(N3CCN(C4CCC4)CC3)nc2CC1 [Compound 416, 2-(4-cyclobutylpiperazin-1-yl)-7-(2-propoxybenzoyl)-6,7,8,9-tetrahydro-5H-pyrimido[4,5-d]azepine] | ≥ 90%
CCCCOc1ccccc1C(=O)N1CCc2cnc(N3CCN(C4CCC4)CC3)nc2CC1 [Compound 417, 7-(2-butoxybenzoyl)-2-(4-cyclobutylpiperazin-1-yl)-6,7,8,9-tetrahydro-5H-pyrimido[4,5-d]azepine] | ≥ 90%
Cc1ccc(Oc2ccccc2C(=O)N2CCc3cnc(N4CCN(C5CCC5)CC4)nc3CC2)cc1 [Compound 418, 2-(4-cyclobutylpiperazin-1-yl)-7-[2-(4-methylphenoxy)benzoyl]-6,7,8,9-tetrahydro-5H-pyrimido[4,5-d]azepine] | ≥ 90%
O=C(c1ccccc1Oc1ccc(Cl)cc1)N1CCc2cnc(N3CCN(C4CCC4)CC3)nc2CC1 [Compound 419, 7-[2-(4-chlorophenoxy)benzoyl]-2-(4-cyclobutylpiperazin-1-yl)-6,7,8,9-tetrahydro-5H-pyrimido[4,5-d]azepine] | ≥ 90%
O=C(c1ccccc1Oc1ccccc1)N1CCc2cnc(N3CCN(C4CCC4)CC3)nc2CC1 [Compound 422, 2-(4-cyclobutylpiperazin-1-yl)-7-(2-phenoxybenzoyl)-6,7,8,9-tetrahydro-5H-pyrimido[4,5-d]azepine] | ≥ 90%

Next, values leading:

inhibition at 4 µM | SMILES
≥ 90% | O=C(c1cc(F)ccc1F)N1CCc2cnc(N3CCN(C4CCC4)CC3)nc2CC1 [Compound 391, 2-(4-cyclobutylpiperazin-1-yl)-7-(2,5-difluorobenzoyl)-6,7,8,9-tetrahydro-5H-pyrimido[4,5-d]azepine]
≥ 90% | O=C(c1ccc(F)cc1F)N1CCc2cnc(N3CCN(C4CCC4)CC3)nc2CC1 [Compound 392, 2-(4-cyclobutylpiperazin-1-yl)-7-(2,4-difluorobenzoyl)-6,7,8,9-tetrahydro-5H-pyrimido[4,5-d]azepine]
≥ 90% | O=C(c1ccc(F)c(Cl)c1)N1CCc2cnc(N3CCN(C4CCC4)CC3)nc2CC1 [Compound 393, 7-(3-chloro-4-fluorobenzoyl)-2-(4-cyclobutylpiperazin-1-yl)-6,7,8,9-tetrahydro-5H-pyrimido[4,5-d]azepine]
≥ 90% | Cc1ccc(C(=O)N2CCc3cnc(N4CCN(C5CCC5)CC4)nc3CC2)cc1Cl [Compound 394, 7-(3-chloro-4-methylbenzoyl)-2-(4-cyclobutylpiperazin-1-yl)-6,7,8,9-tetrahydro-5H-pyrimido[4,5-d]azepine]
≥ 90% | Cc1cc(C(=O)N2CCc3cnc(N4CCN(C5CCC5)CC4)nc3CC2)ccc1Cl [Compound 395, 7-(4-chloro-3-methylbenzoyl)-2-(4-cyclobutylpiperazin-1-yl)-6,7,8,9-tetrahydro-5H-pyrimido[4,5-d]azepine]
≥ 90% | Cc1cccc(C(=O)N2CCc3cnc(N4CCN(C5CCC5)CC4)nc3CC2)c1C [Compound 403, 2-(4-cyclobutylpiperazin-1-yl)-7-(2,3-dimethylbenzoyl)-6,7,8,9-tetrahydro-5H-pyrimido[4,5-d]azepine]
≥ 90% | Cc1ccc(C(=O)N2CCc3cnc(N4CCN(C5CCC5)CC4)nc3CC2)c(C)c1 [Compound 407, 2-(4-cyclobutylpiperazin-1-yl)-7-(2,4-dimethylbenzoyl)-6,7,8,9-tetrahydro-5H-pyrimido[4,5-d]azepine]
≥ 90% | COc1ccc(Br)c(C(=O)N2CCc3cnc(N4CCN(C5CCC5)CC4)nc3CC2)c1 [Compound 413, 7-(2-bromo-5-methoxybenzoyl)-2-(4-cyclobutylpiperazin-1-yl)-6,7,8,9-tetrahydro-5H-pyrimido[4,5-d]azepine]
≥ 90% | CCOc1ccccc1C(=O)N1CCc2cnc(N3CCN(C4CCC4)CC3)nc2CC1 [Compound 415, 2-(4-cyclobutylpiperazin-1-yl)-7-(2-ethoxybenzoyl)-6,7,8,9-tetrahydro-5H-pyrimido[4,5-d]azepine]
≥ 90% | COc1ccc(Cl)cc1C(=O)N1CCc2cnc(N3CCN(C4CCC4)CC3)nc2CC1 [Compound 420, 7-(5-chloro-2-methoxybenzoyl)-2-(4-cyclobutylpiperazin-1-yl)-6,7,8,9-tetrahydro-5H-pyrimido[4,5-d]azepine]
≥ 90% | COc1cc(Cl)ccc1C(=O)N1CCc2cnc(N3CCN(C4CCC4)CC3)nc2CC1 [Compound 421, 7-(4-chloro-2-methoxybenzoyl)-2-(4-cyclobutylpiperazin-1-yl)-6,7,8,9-tetrahydro-5H-pyrimido[4,5-d]azepine]
≥ 90% | COc1ccc(OC)c(C(=O)N2CCc3cnc(N4CCN(C5CCC5)CC4)nc3CC2)c1 [Compound 423, 2-(4-cyclobutylpiperazin-1-yl)-7-(2,5-dimethoxybenzoyl)-6,7,8,9-tetrahydro-5H-pyrimido[4,5-d]azepine]
